Test [1] can be described thus: HeLa cell cytotoxicity, dose response, cytotoxicity control, CellTiter-Glo luminescence, dry powder, set 2 (AID 720593). Type of test: functional, cell-based. (In general: In ATP-based viability assays light output follows the ATP content of the culture.)
A short description of test [2]: cells. Type of test: functional, cell-based.
The nature of test [3]: cytotoxicity toward NIH3T3 fibroblasts, dose response, counter-screen, cell-based, ATP luminescence, mouse fibroblasts (AID 2010).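 Note: cells exposed to compound for about 90 hours before reading.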 Type of test: functional. On the technique in general: Counterscreens check selectivity or assay interference.
Test [4] is described as follows: inhibitors of intracellular T. cruzi replication, confirmation, NIH3T3 host cells, beta-gal luminescence (AID 2044).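 Note: intracellular parasites grown in NIH/3T3 mouse fibroblasts as host cells; luminescent beta-galactosidase reporter signal from transgenic T. cruzi replicating inside host cells; inhibitors lower the luminescence signal.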 Type of test: functional, cell-based.
Test [5] in a line: cells. Type of test: functional, cell-based. The source holds these as a separate data set.
Test [6] is described as follows: HEK293T cell cytotoxicity, dose response, cytotoxicity control, CellTiter-Glo luminescence, dry powder, set 2 (AID 720595). The format is functional, cell-based. To be noted: HEK293.
A short description of test [7]: HepG2 cell cytotoxicity, dose response, cytotoxicity control, ATP luminescence, cherry-pick, activator set 2 (AID 1053143). The format is functional, cell-based.
The target of test [8] is Sphingosine 1-phosphate receptor 2 (Homo sapiens, UniProt O95136). The test can be described thus: Dose Response Cell Based Assay for Agonists of the S1P2 Receptor. [Related pubchem assays: 729, 736, 843 ]. The format is functional.
Test [9] can be described thus: HepG2 cell cytotoxicity, dose response, cytotoxicity control, cherry-picked samples (AID 1159577). Type of test: functional, cell-based.
Test [10] can be described thus: P. falciparum 3D7-ScDHODH growth inhibitors, dose response, SYBR Green, dry powder samples (AID 1159570).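 Note: parasite growth measured after 72 hours of compound exposure.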 Type of test: functional, cell-based.
Test [11] is described as follows: P. falciparum Dd2 growth inhibitors, dose response, SYBR Green, dry powder samples (AID 1159566).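 Note: potency for growth inhibition with lower SYBR green DNA signal.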 Type of test: functional, cell-based.
The nature of test [12]: Plasmodium falciparum Dd2 Sybr green parasite growth Measured in Cell-Based and Microorganism Combination System Using Plate Reader - 2153-01_Inhibitor_Dose_DryPowder_Activity_Set10. The format is functional.
A short description of test [13]: P. falciparum Dd2 growth inhibitors, dose response, SYBR Green, cherry-picked samples (AID 1159567). The format is functional, cell-based.
A short description of test [14]: P. falciparum ATP4 D1247Y mutant growth inhibitors, dose response, NITD609-resistant line, SYBR Green, dry powder (AID 1159571).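 Note: parasites synchronized at ring stage by sorbitol before testing.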 The format is functional, cell-based.
Test [15] deals with Luciferin 4-monooxygenase (Photinus pyralis, UniProt P08659). The experiment in a line: firefly luciferase enzyme inhibitors, dose response, biochemical, luminescence (AID 1891).
The nature of test [16]: Luminescence Cell-Based Dose Confirmation HTS to Identify Inhibitors of Platelet Dense Granule Release. [Related pubchem assays: 1663 (Primary HTS), 1678 (Summary of Project)]. Type of test: functional.
The target in test [17] is T1, Oxysterols receptor LXR-beta (Homo sapiens, UniProt P55055).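 Note: Cell-based luminescence dose-response assay of agonist activity at LXR, run as a confirmatory counterscreen to a daf-12 agonist screen; HEK293 cells with Gal4-LXR fusion and GAL4-driven luciferase reporter; agonist potency from rising luciferase signal of a Gal4-LXR reporter.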
T1 sequence (P55055 whole entry): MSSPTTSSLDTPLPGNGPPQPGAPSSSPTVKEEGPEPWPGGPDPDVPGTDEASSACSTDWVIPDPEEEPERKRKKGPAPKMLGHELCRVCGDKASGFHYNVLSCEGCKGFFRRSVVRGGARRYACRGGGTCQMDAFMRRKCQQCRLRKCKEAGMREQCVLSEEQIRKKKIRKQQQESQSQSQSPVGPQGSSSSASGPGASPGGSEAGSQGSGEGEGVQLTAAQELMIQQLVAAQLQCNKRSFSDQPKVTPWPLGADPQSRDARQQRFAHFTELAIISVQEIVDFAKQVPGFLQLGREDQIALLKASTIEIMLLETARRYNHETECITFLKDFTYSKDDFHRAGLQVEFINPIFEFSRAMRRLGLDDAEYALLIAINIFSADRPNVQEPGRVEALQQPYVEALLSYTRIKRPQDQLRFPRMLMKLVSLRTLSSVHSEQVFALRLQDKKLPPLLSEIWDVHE
Type of test: functional, cell-based.

The nature of test [18]: cells.
A short description of test [19]: HeLa 2N DNA content increase, dose response, cell-based, IC50 (AID 1117349). Type of test: functional.
The nature of test [20]: HCT116 cell viability decrease, GSK3B pretreatment – CellTiter-Glo, IC50, dose response (AID 1117339). The format is functional. To be noted: HCT-116.
The nature of test [21]: CellTiter-Glo luminescent dose response of DLD-1 viability loss (AID 1117352). Type of test: functional.
Test [22] is described as follows: SNU-C1 cell viability reduction, dose response, CellTiter-Glo luminescence (AID 1117323). Type of test: functional, cell-based.
A short description of test [23]: RKO cell viability reduction, dose response, CellTiter-Glo luminescence (AID 1117322). The format is functional.
The nature of test [24]: cytotoxicity toward HT-29 cells – cell-based, CellTiter-Glo luminescence, IC50, dose response (AID 1117330). Type of test: functional.
Test [25] in a line: cytotoxicity toward HCT116 cells – cell-based, CellTiter-Glo luminescence, IC50, dose response (AID 1117332). Type of test: functional. The conditions noted are these: HCT-116.
Test [26] can be described thus: HeLa 4N DNA content increase, dose response, cell-based, IC50 (AID 1117351). The format is functional.
Test [27] has as its target Mannose-6-phosphate isomerase (Homo sapiens, UniProt P34949). The experiment in a line: human PMI inhibitors, high substrate, primary screen, biochemical, fluorescence intensity, high mannose 6-phosphate (AID 1220).
For another test, the target named is Nonstructural protein 1 (Influenza A virus, UniProt Q194T2). Type of test: functional, Influenza A virus (A/California/07/2009(H1N1)).
Test [28] is described as follows: Luminescent dose response cell-based high throughput screening assay for inhibitors of the Janus kinase 2 mutant JAK2V617F. [Related pubchem assays: 1446 (Primary screen.), 1521 (Confirmation assay.), 1486 (Counter screen.)]. The format is functional.
The target of test [29] is T2, Tyrosine-protein phosphatase non-receptor type 7 (Homo sapiens, UniProt P35236).
T2 sequence (P35236 whole entry): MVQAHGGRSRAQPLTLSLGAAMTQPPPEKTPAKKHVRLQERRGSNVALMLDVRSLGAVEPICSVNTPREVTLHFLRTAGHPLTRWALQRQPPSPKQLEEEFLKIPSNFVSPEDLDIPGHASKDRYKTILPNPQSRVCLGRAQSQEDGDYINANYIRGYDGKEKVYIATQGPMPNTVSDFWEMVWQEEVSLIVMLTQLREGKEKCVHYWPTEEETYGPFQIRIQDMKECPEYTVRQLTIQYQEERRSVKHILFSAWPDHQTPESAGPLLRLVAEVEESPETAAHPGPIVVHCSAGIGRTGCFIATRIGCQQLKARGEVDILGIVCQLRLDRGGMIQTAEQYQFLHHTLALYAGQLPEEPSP
The experiment in a line: inhibitors of human HePTP phosphatase, […], biochemical, absorbance, leukemia target (AID 521). Type of test: functional.

Activity calls are given as the source filed them.

Chain of Mannose-6-phosphate isomerase (P34949 whole entry): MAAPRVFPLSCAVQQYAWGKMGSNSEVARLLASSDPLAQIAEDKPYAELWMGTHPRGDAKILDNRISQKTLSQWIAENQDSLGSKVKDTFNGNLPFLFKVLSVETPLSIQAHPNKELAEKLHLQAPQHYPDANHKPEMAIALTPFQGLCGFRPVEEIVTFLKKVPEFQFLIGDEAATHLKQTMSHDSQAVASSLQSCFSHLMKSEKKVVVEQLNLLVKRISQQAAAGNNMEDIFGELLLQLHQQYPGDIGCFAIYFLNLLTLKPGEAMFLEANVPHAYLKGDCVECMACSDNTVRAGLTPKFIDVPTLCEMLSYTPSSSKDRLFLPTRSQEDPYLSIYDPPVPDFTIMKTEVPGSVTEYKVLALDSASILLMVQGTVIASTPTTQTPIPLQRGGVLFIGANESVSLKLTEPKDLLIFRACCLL
Chain of Sphingosine 1-phosphate receptor 2 (O95136 whole entry): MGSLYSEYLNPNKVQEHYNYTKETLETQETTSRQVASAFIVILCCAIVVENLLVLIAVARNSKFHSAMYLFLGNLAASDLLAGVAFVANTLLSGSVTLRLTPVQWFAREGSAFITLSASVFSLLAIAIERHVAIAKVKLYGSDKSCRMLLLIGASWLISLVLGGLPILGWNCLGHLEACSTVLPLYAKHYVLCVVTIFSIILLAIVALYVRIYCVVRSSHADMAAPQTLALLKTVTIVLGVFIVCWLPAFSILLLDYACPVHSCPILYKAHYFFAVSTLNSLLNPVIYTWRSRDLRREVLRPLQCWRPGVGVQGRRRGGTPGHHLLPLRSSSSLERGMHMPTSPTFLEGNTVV
Chain of Nonstructural protein 1 (Q194T2 whole entry): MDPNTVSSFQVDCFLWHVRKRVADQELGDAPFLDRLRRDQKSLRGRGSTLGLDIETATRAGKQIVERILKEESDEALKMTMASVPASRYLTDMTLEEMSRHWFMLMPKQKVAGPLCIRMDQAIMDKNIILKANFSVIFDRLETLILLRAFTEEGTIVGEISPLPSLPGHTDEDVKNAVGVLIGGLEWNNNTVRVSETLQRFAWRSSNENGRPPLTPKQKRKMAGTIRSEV
Chain of Luciferin 4-monooxygenase (P08659 whole entry): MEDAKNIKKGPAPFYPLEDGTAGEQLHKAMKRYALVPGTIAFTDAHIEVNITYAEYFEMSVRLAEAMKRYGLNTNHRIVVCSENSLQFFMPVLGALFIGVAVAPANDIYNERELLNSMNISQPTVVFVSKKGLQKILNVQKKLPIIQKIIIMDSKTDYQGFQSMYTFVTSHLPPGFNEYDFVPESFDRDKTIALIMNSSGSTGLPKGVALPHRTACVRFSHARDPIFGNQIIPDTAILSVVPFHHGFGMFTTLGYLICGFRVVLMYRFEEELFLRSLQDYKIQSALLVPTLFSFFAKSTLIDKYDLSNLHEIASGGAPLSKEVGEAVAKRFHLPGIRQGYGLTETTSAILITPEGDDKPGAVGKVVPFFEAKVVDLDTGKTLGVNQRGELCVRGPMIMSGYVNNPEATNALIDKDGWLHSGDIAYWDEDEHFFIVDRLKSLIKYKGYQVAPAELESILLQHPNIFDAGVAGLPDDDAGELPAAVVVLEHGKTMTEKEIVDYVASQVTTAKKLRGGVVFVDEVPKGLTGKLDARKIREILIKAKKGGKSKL

As usually defined, the AC50 is the midpoint of the concentration-response curve, whichever way the signal moves. By EC50 is commonly meant the midpoint of the concentration-response curve. With `CCc1cc2c(O)nc(-c3ccccn3)nc2s1`, the AC50 in [1] was 24.1 µM (active); in [6], 34.5 µM (active); in test [7], 14.2 µM (active). For the same molecule, the EC50 is 28.8 µM (active) in “cells [2]”, 2.45 µM (active) in [3], 1.38 µM (active) in test [4] and > 350 µM (not active) in “cells [5]”.

Turning to `CCOC(=O)CN(C(=O)CSc1nnc(COc2ccc(OC)cc2)n1C)c1ccccc1`, the EC50 in test [8] is listed as > 50 µM (not active).

`COc1ccc(-c2ccccc2[C@H]2[C@@H](C#N)N(C(=O)C3CCCC3)[C@@H]2CO)cc1`: the AC50 in test [9] was > 42 µM (inactive); in test [10], 0.69 µM (active); in test [11] it was 0.717 µM (active); in test [12], 0.867 µM (active); in test [13], 1.34 µM (active); in test [14] it was 2.54 µM (active).

Turning to `N=C(NOC(=O)c1ccc(Cl)cc1Cl)c1ccccc1`, the EC50 in test [15] was 1.06 µM (active); in test [16] it was 6.01 µM (active); in test [17] it was > 67.5 µM (inactive); in the test “cells [18]”, > 67.5 µM (inactive).

By IC50 is commonly meant the midpoint of a concentration-inhibition curve. Regarding `CC(C)C[C@H](NC(=O)[C@H](CCc1ccccc1)NC(=O)CN1CCOCC1)C(=O)N[C@@H](Cc1ccccc1)C(=O)N[C@@H](CC(C)C)C(=O)[C@@]1(C)CO1` [CARFILZOMIB], the IC50 in [19] is > 10 µM (inactive); in test [20], 0.00173 µM (active); in test [21] it was 0.00696 µM (active); in test [22] it was 0.00147 µM (active); in test [23], 0.00394 µM (active); in test [24], 0.00318 µM (active). Moreover, the IC50 in test [25] is 0.00558 µM (active); in test [26], > 10 µM (inactive).

As to `COc1ccc(Nc2c([N+](=O)[O-])ccc3c2=NC2(CCCCC2)N=3)cc1`, the values for the IC50 (in [27]; at Nonstructural protein 1) were > 50 µM (not active) and 11.1 µM (active), respectively.

As to `Cc1ccc(Nc2nc(N)nc(CCl)n2)cc1`, the IC50 in [28] was 1.75 µM (active).

In the case of `CC(C)(C)OC(=O)N1CC(O)CC1C(=O)OCC(=O)c1ccc(Cl)cc1` (stereo not given), the IC50 in test [29] is recorded as > 100 µM (not active).
